Like-named read-outs stand apart in the source and are kept apart here.
Assays:
NSD1 [1] = biological target: T1, NSD1 (Homo sapiens, UniProt Q96L73); experiment: Mass spectrometry detection of covalent/irreversible binding to NSD1
T1 construct: 6 μM of 159 was incubated with 1 mM of NSD1 SET domain for 8 hours
T1 sequence (Q96L73 1852-2082 limits assumed): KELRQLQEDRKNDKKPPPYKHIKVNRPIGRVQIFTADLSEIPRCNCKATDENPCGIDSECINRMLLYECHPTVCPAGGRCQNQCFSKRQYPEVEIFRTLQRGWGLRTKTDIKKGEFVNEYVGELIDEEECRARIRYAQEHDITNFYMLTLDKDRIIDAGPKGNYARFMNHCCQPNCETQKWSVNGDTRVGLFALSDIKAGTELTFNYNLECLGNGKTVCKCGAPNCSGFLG
Procedure: (§1) 10 μM 151 was incubated with NSD1 for 20 h. B. HSQC spectrum of 150 μM NSD1 with 300 μM 151.
6 μM of 159 was incubated with 1 mM of NSD1 SET domain for 8 hours.
FIG. 7. […] Asterisk denotes covalent protein adduct with 198.

NSD1 [2] = biological target: NSD1 (Homo sapiens, UniProt Q96L73); experiment: HSQC NMR spectrum of NSD1 with compound; assay type: binding; conditions: 150 μM NSD1 with 300 μM compound; including Cys2062
Procedure: as §1
Target sequence in this assay (Q96L73 whole entry, the tested form may be a part): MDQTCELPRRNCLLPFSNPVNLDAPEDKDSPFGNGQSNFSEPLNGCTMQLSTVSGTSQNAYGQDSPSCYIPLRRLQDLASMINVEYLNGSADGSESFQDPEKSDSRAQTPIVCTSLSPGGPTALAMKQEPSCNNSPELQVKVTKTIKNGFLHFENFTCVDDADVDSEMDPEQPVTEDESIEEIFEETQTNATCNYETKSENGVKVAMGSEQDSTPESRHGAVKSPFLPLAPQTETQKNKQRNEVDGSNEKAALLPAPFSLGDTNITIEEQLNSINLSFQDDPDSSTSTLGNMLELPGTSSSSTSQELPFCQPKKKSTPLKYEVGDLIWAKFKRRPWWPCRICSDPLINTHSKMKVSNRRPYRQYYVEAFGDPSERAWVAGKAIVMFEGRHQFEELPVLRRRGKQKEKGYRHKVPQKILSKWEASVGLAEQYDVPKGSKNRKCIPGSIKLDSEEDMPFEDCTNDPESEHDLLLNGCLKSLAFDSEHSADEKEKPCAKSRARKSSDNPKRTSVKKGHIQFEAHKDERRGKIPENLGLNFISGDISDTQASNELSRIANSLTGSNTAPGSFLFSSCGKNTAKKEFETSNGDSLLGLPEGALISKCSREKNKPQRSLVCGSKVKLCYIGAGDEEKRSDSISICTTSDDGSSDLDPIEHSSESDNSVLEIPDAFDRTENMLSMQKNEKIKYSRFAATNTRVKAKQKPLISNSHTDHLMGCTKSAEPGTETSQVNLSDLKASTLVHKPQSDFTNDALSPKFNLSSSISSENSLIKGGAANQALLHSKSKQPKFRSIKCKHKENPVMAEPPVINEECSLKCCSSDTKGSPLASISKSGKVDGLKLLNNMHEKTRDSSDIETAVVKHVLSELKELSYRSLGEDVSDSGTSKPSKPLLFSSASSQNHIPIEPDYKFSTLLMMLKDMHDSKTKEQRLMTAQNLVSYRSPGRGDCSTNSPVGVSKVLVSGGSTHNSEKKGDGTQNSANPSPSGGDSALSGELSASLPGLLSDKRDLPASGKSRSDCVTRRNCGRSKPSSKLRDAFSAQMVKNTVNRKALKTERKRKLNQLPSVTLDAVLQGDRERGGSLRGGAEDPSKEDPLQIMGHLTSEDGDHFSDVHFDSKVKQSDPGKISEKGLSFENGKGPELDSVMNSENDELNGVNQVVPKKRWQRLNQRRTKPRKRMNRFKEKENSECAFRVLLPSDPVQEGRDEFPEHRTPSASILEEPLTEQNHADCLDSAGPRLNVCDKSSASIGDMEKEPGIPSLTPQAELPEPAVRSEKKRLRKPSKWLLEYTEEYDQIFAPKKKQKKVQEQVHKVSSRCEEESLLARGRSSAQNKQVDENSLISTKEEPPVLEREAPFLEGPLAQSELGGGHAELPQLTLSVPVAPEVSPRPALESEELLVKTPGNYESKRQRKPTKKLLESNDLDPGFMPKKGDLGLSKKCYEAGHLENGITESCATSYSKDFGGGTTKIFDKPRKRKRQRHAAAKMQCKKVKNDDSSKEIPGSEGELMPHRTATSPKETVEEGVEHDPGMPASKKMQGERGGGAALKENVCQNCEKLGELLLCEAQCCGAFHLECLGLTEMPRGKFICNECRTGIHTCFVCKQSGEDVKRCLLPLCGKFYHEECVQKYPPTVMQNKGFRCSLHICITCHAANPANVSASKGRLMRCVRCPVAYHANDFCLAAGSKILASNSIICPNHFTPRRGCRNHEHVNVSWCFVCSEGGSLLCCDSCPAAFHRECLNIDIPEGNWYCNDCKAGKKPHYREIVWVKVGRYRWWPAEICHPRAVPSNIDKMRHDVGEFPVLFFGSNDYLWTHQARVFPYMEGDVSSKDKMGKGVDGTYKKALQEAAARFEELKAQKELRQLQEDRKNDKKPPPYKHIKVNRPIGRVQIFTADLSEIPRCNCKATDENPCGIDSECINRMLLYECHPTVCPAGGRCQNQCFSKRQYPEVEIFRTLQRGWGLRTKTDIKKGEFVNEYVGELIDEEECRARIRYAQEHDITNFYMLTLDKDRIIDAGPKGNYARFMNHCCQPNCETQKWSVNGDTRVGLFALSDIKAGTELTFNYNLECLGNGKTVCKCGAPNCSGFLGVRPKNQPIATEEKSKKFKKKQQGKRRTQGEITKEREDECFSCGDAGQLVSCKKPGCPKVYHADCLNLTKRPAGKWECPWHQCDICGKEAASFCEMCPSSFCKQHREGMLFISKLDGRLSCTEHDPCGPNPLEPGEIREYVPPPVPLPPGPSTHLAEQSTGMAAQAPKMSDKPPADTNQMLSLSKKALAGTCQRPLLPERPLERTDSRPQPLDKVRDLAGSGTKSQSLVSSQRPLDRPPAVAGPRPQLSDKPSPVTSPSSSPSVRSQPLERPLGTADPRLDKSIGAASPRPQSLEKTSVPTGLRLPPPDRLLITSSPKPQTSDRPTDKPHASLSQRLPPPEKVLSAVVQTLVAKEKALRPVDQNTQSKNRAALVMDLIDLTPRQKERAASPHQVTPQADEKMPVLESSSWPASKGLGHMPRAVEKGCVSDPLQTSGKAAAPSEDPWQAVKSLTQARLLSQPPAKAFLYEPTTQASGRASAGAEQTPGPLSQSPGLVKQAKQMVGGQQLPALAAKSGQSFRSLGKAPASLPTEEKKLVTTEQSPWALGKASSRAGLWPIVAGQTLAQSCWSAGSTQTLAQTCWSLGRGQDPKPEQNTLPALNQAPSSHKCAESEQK

[3] = biological target: T2, NSD1 (1753-2095 fragment) (Homo sapiens, UniProt Q96L73); experiment: CETSA assay in HeLa cells; assay type: cell-based; conditions: HeLa cells treated with 5 μM compound
T2 construct: expressed in transfected cells; host or cells: HeLa cells
T2 sequence (Q96L73 1753-2095): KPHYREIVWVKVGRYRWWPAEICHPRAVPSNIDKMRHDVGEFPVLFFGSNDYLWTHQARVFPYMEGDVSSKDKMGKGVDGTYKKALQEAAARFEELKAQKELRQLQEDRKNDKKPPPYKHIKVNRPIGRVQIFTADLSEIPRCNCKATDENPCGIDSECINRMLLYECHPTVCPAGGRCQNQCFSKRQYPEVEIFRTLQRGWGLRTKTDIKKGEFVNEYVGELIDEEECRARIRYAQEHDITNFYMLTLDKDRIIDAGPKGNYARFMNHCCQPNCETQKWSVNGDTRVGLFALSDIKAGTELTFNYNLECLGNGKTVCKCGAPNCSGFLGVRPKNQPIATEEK

[4] = tested on: Nup98-NSD1 subcutaneous model; experiment: Nup98-NSD1 subcutaneous leukemia model in mice; assay type: in vivo; conditions: 25 mg/kg q.d., I.P.
Procedure: FIG. 6A-F. Pharmacokinetics and efficacy of 159 in Nup98-NSD1 leukemia model. A. Pharmacokinetics studies in mice treated with 25 mg/kg of 159 using I.P. administration. B. Efficacy in Nup98-NSD1 subcutaneous model. Mice were treated with 25 mg/kg q.d., I.P. C. Representative tumors from vehicle and 159 treated mice. […] E. Immuno-histochemistry analysis of H3K36me2 level in tumor samples of mice treated with vehicle (top) and 159 (bottom). […] F. Body weight of 159 treated animals.

HM-2 cells = experiment: MTT proliferation assay, control HM-2 cells; assay type: cell-based
Nup98-NSD1 cells [5] = experiment: Cytospins, differentiation of Nup98-NSD1 cells; assay type: cell-based
Nup98-NSD1 cells [6] = experiment: MTT growth inhibition assay, Nup98-NSD1 cells; assay type: cell-based; conditions: 3, 7 and 10 days
SUM44 = experiment: Viability, 7 days treatment, SUM44; assay type: cell-based; conditions: 168 h; SUM44, 7 days treatment
Excerpt: (§2) FIG. 8. Activity of NSD inhibitors in breast cancer cell lines.

ZR-75-1 = experiment: MTT viability, 7 days treatment, ZR-75-1; assay type: cell-based; conditions: Homo sapiens, 168 h, ZR-75-1, 7 days treatment
Excerpt: as §2

MCF7 = experiment: MTT viability, 7 days treatment, MCF7; assay type: cell-based; conditions: Homo sapiens, 168 h, MCF7, 7 days treatment
Excerpt: as §2

MDA-MB-468 = experiment: MTT viability, 7 days treatment, MDA-MB-468; assay type: cell-based; conditions: Homo sapiens, 168 h, MDA-MB-468, 7 days treatment
Excerpt: as §2

`CC1CN1c1cc(O)c2nc(N)sc2c1` (stereo not shown) [Compound 151] was tested. Which “Irreversible binding to NSD1 detected by MS” value (NSD1 [1]; 10 μM compound incubated with NSD1 for 20 h) did it give?
The value was “Irreversible binding”.

What about the “HSQC spectrum perturbation of NSD1 residues” value (NSD1 [2]) of the same compound?
Its value is “Several perturbed residues”.

For `Nc1nc2c(O)cc(N3CC3Cc3ccccc3Cl)cc2s1` (stereo not shown) [Compound 159, 2-Amino-6-(2-(2-chlorobenzyl)aziridin-1-yl)benzo[d]thiazol-4-ol], which “CETSA stabilization of NSD1 (1753-2095 fragment)” value [3] is on record?
Its value is “stabilization of NSD1”.

What about the “Expression of Hoxa7 in tumors” value [4] of the same compound?
The value was “reduced expression of Hoxa7”.

What about the “H3K36me2 level in tumor samples (immuno-histochemistry)” value [4] of the same compound?
The value was “Strong reduction of H3K36me2 level”.

And the “Proliferation of control HM-2 cells (MTT)” value (HM-2 cells)?
The value was “does not inhibit proliferation”.

What about the “Differentiation of Nup98-NSD1 cells (cytospins)” value (Nup98-NSD1 cells [5]) of the same compound?
The value was “differentiation of Nup98-NSD1 cells induced”.

What about the “Growth inhibition of Nup98-NSD1 cells (MTT)” value (Nup98-NSD1 cells [6]) of the same compound?
Its value is “time-dependent (3, 7 and 10 days) growth inhibition”.

And the “Covalent engagement of NSD1 by mass spectrometry” value (NSD1 [1]; 6 μM compound incubated with 1 mM of NSD1 SET domain for 8 hours)?
Its value is “binds covalently”.

For `C=CS(=O)(=O)NCc1cccc(NCC#Cc2cc(O)c3nc(N)sc3c2)c1F` [Compound 225], which GI50 (SUM44) is on record?
The GI50 was 341 nM.

And the GI50 (ZR-75-1; read-out: GI50, viability)?
Its GI50 is 53 nM.

And the GI50 (MCF7; read-out: GI50, viability)?
Its GI50 is 487 nM.

What about the GI50 (MDA-MB-468; read-out: GI50, viability) of the same compound?
Its GI50 is 31 nM.

`C=CS(=O)(=O)NCc1cccc(NCC#Cc2cc(O)c3nc(N)sc3c2)c1Cl` [Compound 230] was tested. Which GI50 (ZR-75-1; read-out: GI50, MTT viability) did it give?
Its GI50 is 100 nM.

What about the GI50 (MCF7; read-out: GI50, MTT viability) of the same compound?
The GI50 was 1500 nM.

And the GI50 (MDA-MB-468; read-out: GI50, MTT viability)?
Its GI50 is 35 nM.

— US11324729B2, “NSD family inhibitors and methods of treatment therewith” (The Regents of the University of Michigan, priority 2017, dated 2022)
